These results are taken from patent US6337399B1, “Processes for producing 7-isoindolinequinolonecarboxylic derivatives and intermediates therefor, salts of 7-isoindolinequinolonecarboxylic acids, hydrates thereof, and composition containing the same as active ingredient” (priority 1997, dated 2002).

Broadly, the solubility is the concentration that dissolves in the medium under given conditions. The term Solubility denotes the dissolved amount per volume that the medium holds.

Where two headings read alike, the source gives them in different places.

Data set [1] is described as follows: Solubility of each salt of T-3811 in distilled water. The class given is physicochemical. The following applies: for pH: pH given beside the solubility of each salt in distilled water; for solubility at 3 h: thermodynamic from solid; for solubility at a physiologically acceptable pH: compared with the other salts of T-3811, in words. Here is the method: This sample solution is exposed to ultrasonic wave irradiation 5 (SOLID STATE 1,200, Cho-onpa Kogyo) in cold water for 3 hours and then filtered through a filter with a pore size of 0.45-μm (MILLEX-HV13, MILLIPORE).

Data set [2] in a line: Solubility of T-3811 in the vicinity of neutral. The class given is physicochemical. The following applies: in words.
The test system of data set [3] is Gram-positive and Gram-negative bacteria. The following applies: background statement, in words; cited from earlier work.
The nature of data set [4]: Stability against humidity. The class given is physicochemical. The following applies: in words.
Where [5] appears, read: about 50 mg salt in 2 ml distilled water, ultrasonic wave irradiation in cold water 3 hours, 0.45-μm filtrate, T-3811 content by liquid chromatography, read-out: Solubility.

Take `C[C@H]1NCc2cc(-c3ccc4c(=O)c(C(=O)[O-])cn(C5CC5)c4c3OC(F)F)ccc21.[Na+]` [Sodium salt, sodium (R)-1-cyclopropyl-8-difluoromethoxy-7-(1-methyl-2,3-dihydro-1H-5-isoindolyl)-4-oxo-1,4-dihydro-3-quinolinecarboxylate]: in data set [1], the pH stood at 10.11. For the same compound, the solubility at 3 h in data set [1] (setting [5]) stood at 2340 µg/mL.
As to `C[C@H]1NCc2cc(-c3ccc4c(=O)c(C(=O)O)cn(C5CC5)c4c3OC(F)F)ccc21` [Example T-3811, (R)-1-cyclopropyl-8-difluoromethoxy-7-(1-methyl-2,3-dihydro-1H-5-isoindolyl)-4-oxo-1,4-dihydro-3-quinoline-carboxylic acid], the “solubility in the vicinity of neutral” value in data set [2] is given as “low”. The “activity against Gram-positive and Gram-negative bacteria” value in data set [3] was “excellent”.
On to `CS(=O)(=O)O.C[C@H]1NCc2cc(-c3ccc4c(=O)c(C(=O)O)cn(C5CC5)c4c3OC(F)F)ccc21` [Methanesulfonate, (R)-1-cyclopropyl-8-difluoromethoxy-7-(1-methyl-2,3-dihydro-1H-5-isoindolyl)-4-oxo-1,4-dihydro-3-quinolinecarboxylic acid methanesulfonate], for which the “solubility at a physiologically acceptable pH” value is reported as “much higher” in data set [1] (listed as methanesulfonate of T-3811, methanesulfonate) and “remarkably high” in data set [1] (listed as t-3811 methanesulfonate, methanesulfonate). In addition, the pH in data set [1] came to 3.66. For the same compound, in data set [1] (setting [5]), the solubility at 3 h is 16500 µg/mL.
Regarding `C[C@H]1NCc2cc(-c3ccc4c(=O)c(C(=O)O)cn(C5CC5)c4c3OC(F)F)ccc21.O=C(O)CC(O)(CC(=O)O)C(=O)O` [Citrate, (R)-1-cyclopropyl-8-difluoromethoxy-7-(1-methyl-2,3-dihydro-1H-5-isoindolyl)-4-oxo-1,4-dihydro-3-quinolinecarboxylic acid citrate], the pH in data set [1] turned out to be 3.90. In data set [1] (setting [5]), the solubility at 3 h came out at 420 µg/mL.
As for `CC(=O)O.C[C@H]1NCc2cc(-c3ccc4c(=O)c(C(=O)O)cn(C5CC5)c4c3OC(F)F)ccc21` [Acetate, (R)-1-cyclopropyl-8-difluoromethoxy-7-(1-methyl-2,3-dihydro-1H-5-isoindolyl)-4-oxo-1,4-dihydro-3-quinolinecarboxylic acid acetate], the pH in data set [1] worked out at 4.22. Also, the solubility at 3 h in data set [1] (water) is 6230 µg/mL.
As for `C[C@H](O)C(=O)O.C[C@H]1NCc2cc(-c3ccc4c(=O)c(C(=O)O)cn(C5CC5)c4c3OC(F)F)ccc21` [L-lactate, (R)-1-cyclopropyl-8-difluoromethoxy-7-(1-methyl-2,3-dihydro-1H-5-isoindolyl)-4-oxo-1,4-dihydro-3-quinolinecarboxylic acid L-lactate], the pH in data set [1] is reported as 4.40. Also, the solubility at 3 h in data set [1] (setting [5]) worked out at 1980 µg/mL.
Regarding `C[C@H]1NCc2cc(-c3ccc4c(=O)c(C(=O)[O-])cn(C5CC5)c4c3OC(F)F)ccc21.C[C@H]1NCc2cc(-c3ccc4c(=O)c(C(=O)[O-])cn(C5CC5)c4c3OC(F)F)ccc21.[Mg+2]` [Magnesium salt, magnesium salt of (R)-1-cyclopropyl-8-difluoromethoxy-7-(1-methyl-2,3-dihydro-1H-5-isoindolyl)-4-oxo-1,4-dihydro-3-quinolinecarboxylic acid], the Solubility in data set [1] (about 50 mg salt in 2 ml distilled water, ultrasonic wave irradiation in cold water 3 hours, 0.45-μm filtrate, T-3811 content by liquid chromatography) was found to be 60 µg/mL. Moreover, in data set [1], the pH came out at 7.58.
In the case of `C[C@H]1NCc2cc(-c3ccc4c(=O)c(C(=O)O)cn(C5CC5)c4c3OC(F)F)ccc21.O=S(=O)(O)O` [Sulfate, (R)-1-cyclopropyl-8-difluoromethoxy-7-(1-methyl-2,3-dihydro-1H-5-isoindolyl)-4-oxo-1,4-dihydro-3-quinolinecarboxylic acid sulfate], in data set [1], the pH was determined as 3.46. In data set [1] (setting [5]), the solubility at 3 h is 1170 µg/mL.
As to `C[C@H]1NCc2cc(-c3ccc4c(=O)c(C(=O)O)cn(C5CC5)c4c3OC(F)F)ccc21.O=P(O)(O)O` [Phosphate, (R)-1-cyclopropyl-8-difluoromethoxy-7-(1-methyl-2,3-dihydro-1H-5-isoindolyl)-4-oxo-1,4-dihydro-3-quinoline-carboxylic acid phosphate], in data set [1], the pH came to 3.29. For the same compound, the solubility at 3 h in data set [1] (setting [5]) is 8520 µg/mL.
Turning to `CS(=O)(=O)O.C[C@H]1NCc2cc(-c3ccc4c(=O)c(C(=O)O)cn(C5CC5)c4c3OC(F)F)ccc21.O` [T-3811 methanesulfonate hydrate, (R)-1-cyclopropyl-8-difluoromethoxy-7-(1-methyl-2,3-dihydro-1H-5-isoindolyl)-4-oxo-1,4-dihydro-3-quinolinecarboxylic acid methanesulfonate monohydrate], the stability against humidity result in data set [4] was “good”.
Take `C[C@H]1NCc2cc(-c3ccc4c(=O)c(C(=O)O)cn(C5CC5)c4c3OC(F)F)ccc21.Cl` [Hydrochloride, (R)-1-cyclopropyl-8-difluoromethoxy-7-(1-methyl-2,3-dihydro-1H-5-isoindolyl)-4-oxo-1,4-dihydro-3-quinolinecarboxylic acid hydrochloride]: the pH in data set [1] turned out to be 3.99. Further, the solubility at 3 h in data set [1] (water) was determined as 5450 µg/mL.
